Laboratory results reported in patent US6852740B2, “Pyrazole derivatives as p38 kinase inhibitors” (G. D. Searle & Co., priority 1997, dated 2005).
pIC50: −log10 of the molar value.

Legend:
human p38 kinase alpha [1] = biological target: T1, human p38 kinase alpha (Homo sapiens, UniProt Q16539); test: p38α in vitro kinase assay, PHAS-I procedure; assay type: biochemical
T1 construct: The coding region of the human p38a cDNA was obtained by PCR-amplification from RNA; made in house; host or cells: E. coli DH10B
T1 sequence (Q16539 whole entry): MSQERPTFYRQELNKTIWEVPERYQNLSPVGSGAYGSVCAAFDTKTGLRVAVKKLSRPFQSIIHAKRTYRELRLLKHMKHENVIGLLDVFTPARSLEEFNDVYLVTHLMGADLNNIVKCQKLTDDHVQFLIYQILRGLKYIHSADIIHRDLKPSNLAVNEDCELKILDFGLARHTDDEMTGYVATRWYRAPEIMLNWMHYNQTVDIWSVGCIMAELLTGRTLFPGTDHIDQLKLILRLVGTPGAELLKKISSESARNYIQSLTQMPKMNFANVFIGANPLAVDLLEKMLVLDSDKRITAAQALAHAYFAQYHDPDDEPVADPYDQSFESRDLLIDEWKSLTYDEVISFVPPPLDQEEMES
Method: The ability of compounds to inhibit human p38 kinase alpha was evaluated using two in vitro assay methods. In the first method, activated human p38 kinase alpha phosphorylates a biotinylated substrate, PHAS-I (phosphorylated heat and acid stable protein-insulin inducible), in the presence of gamma ^32P-ATP (^32P-ATP). PHAS-I was biotinylated prior to the assay and provides a means of capturing the substrate which is phosphorylated during the assay. p38 Kinase was activated by MKK6. Compounds were tested in 10 fold serial dilutions over the range of 100 μM to 0.001 μM using 1% DMSO. Each concentration of inhibitor was tested in triplicate.
All reactions were carried out in 96 well polypropylene plates. Each reaction well contained 25 mM HEPES pH 7.5, 10 mM magnesium acetate and 50 μM unlabeled ATP. Activation of p38 was required to achieve sufficient signal in the assay. Biotinylated PHAS-I was used at 1-2 μg per 50 μl reaction volume, with a final concentration of 1.5 μM. Activated human p38 kinase alpha was used at 1 μg per 50 μl reaction volume representing a final concentration of 0.3 μM. […]
Following incubation, 20 μl of reaction mixture was transferred to a high capacity streptavidin coated filter plate (SAM-streptavidin-matrix, Promega) prewetted with phosphate buffered saline. […] The plates were sealed and counted.

human p38 kinase alpha [2] = biological target: T1, human p38 kinase alpha; test: p38α in vitro kinase assay, EGFRP procedure; assay type: biochemical
Method: A second assay format was also employed that is based on p38 kinase alpha induced phosphorylation of EGFRP (epidermal growth factor receptor peptide, a 21 mer) in the presence of ^33P-ATP. Compounds were tested in 10 fold serial dilutions over the range of 100 μM to 0.001 μM in 1% DMSO. Each concentration of inhibitor was tested in triplicate. Compounds were evaluated in 50 μl reaction volumes in the presence of 25 mM Hepes pH 7.5, 10 mM magnesium acetate, 4% glycerol, 0.4% bovine serum albumin, 0.4 mM DTT, 50 μM unlabeled ATP, 25 μg EGFRP (200 μM), and 0.05 uCi gamma ^33P-ATP. Reactions were initiated by addition of 0.09 μg of activated, purified human GST-p38 kinase alpha. Activation was carried out using GST-MKK6 (5:1,p38:MKK6) for one hour at 30° C. in the presence of 50 μM ATP. Following incubation for 60 minutes at room temperature, the reaction was stopped by addition of 150 μl of AG 1×8 resin in 900 mM sodium formate buffer, pH 3.0 (1 volume resin to 2 volumes buffer). The mixture was mixed three times with pipetting and the resin was allowed to settle. A total of 50 μl of clarified solution head volume was transferred from the reaction wells to Microlite-2 plates. 150 μl of Microscint 40 was then added to each well of the Microlite plate, and the plate was sealed, mixed, and counted.

[3] = tested on: TNF-α release by U937 cells; test: LPS stimulation of TNF production by U937 cells; assay type: cell-based; settings: Homo sapiens, U-937; LPS-stimulated differentiated U937 cells, TNF-α by ELISA after 4 hour incubation; read-out: TNF Cell IC50
Method: U937 cells (ATCC) were propagated in RPMI 1640 containing 10% fetal bovine serum, 100 IU/ml penicillin, 100 μg/ml streptomycin, and 2 mM glutamine (Gibco). Fifty million cells in 100 ml media were induced to terminal monocytic differentiation by 24 hour incubation with 20 ng/ml phorbol 12-myristate 13-acetate (Sigma). The cells were washed by centrifugation (200×g for 5 min) and resuspended in 100 ml fresh medium. After 24-48 hours, the cells were harvested, centrifuged, and resuspended in culture medium at 2 million cells/ml.
U937 cells (0.1 ml, 2 million/ml) were incubated with 0.1 ml compound (0.004-50 μM, final concentration) for 1 hour in 96 well microtiter plates. Compounds were prepared as 10 mM stock solutions in DMSO and diluted in culture medium to yield a final DMSO concentration of 0.1% in the cell assay. LPS (E coli, 100 ng/ml final concentration) was then added at a volume of 0.02 ml. After 4 hour incubation at 37° C., the amount of TNF-α released in the culture medium was quantitated by ELISA. Inhibitory potency is expressed as IC50 (μM).

| pIC50 (human p38 kinase alpha [1]) | pIC50 (human p38 kinase alpha [2]) | pIC50 [3] | melting point [°C] | SMILES |
| --- | --- | --- | --- | --- |
| 5.06 | 6.18 | 6.22 |  | Cc1n[nH]c(/C=C/c2ccccc2)c1-c1ccncc1 [Example 1, 4-[3-Methyl-5-(2-phenylethenyl)-1H-pyrazol-4-yl]pyridine] |
| 6.00 | 5.55 | 5.64 |  | Cc1n[nH]c(CCc2ccccc2)c1-c1ccncc1 [Example 2, 4-[3-Methyl-5-(2-phenylethyl)-1H-pyrazol-4-yl]pyridine] |
|  |  |  | 125 to 131 | c1ccc(CCc2n[nH]cc2-c2ccncc2)cc1 [Example 3, 4-[5-(2-phenylethyl)-1H-pyrazol-4-yl]pyridine] |
